From patent US11896580B2, “Composition for improving milk quality and preparation method and application thereof” (CHINA AGRICULTURAL UNIVERSITY, priority 2020, dated 2024)

Legend:
[1] = test system: Holstein cows having somatic cell counts of 300,000/mL to 1,000,000/mL; assay: Analysis of the DHI indicators of milk after subcutaneous injection of melatonin; format: in vivo
From the text: (1) According to the monthly DHI test reports from the dairy farm, Holstein cows having somatic cell counts of 300,000/mL to 1,000,000/mL are selected to be fed separately, and are ensured to have no significant difference in physical health. Season groups: spring n=90, summer n=74, autumn n=83, winter n=81 (number of cows). Age groups: 2-year-old n=23; 3-year-old n=80; 4-year-old n=66; 5-year-old n=56; 6-year-old n=27; 7-year-old n=19 (number of cows). Lactation period groups: peak-lactation n=15, mid-lactation n=38, end-lactation n=59 (number of cows) (initial-lactation: days 1-15 after calving; peak-lactation: days 16-100 after calving; mid-lactation: days 101-200 after calving; end-lactation: day 201 after calving to weaning).
(2) The dairy cows having high somatic cell counts are injected with 2 mL melatonin solution every day for 4 consecutive days in each month. 15 days after the injection, fresh milk was collected and stored in 50 mL centrifuge tubes, and was tested for the changes in somatic cell counts. The cows were fed with total mixed ration, and were fed three times at 06:00, 12:00, and 18:00 respectively. Then, the cows entered the sports ground to move freely, drink water and rest.
(3) The sampling bottles were numbered and added with 2-3 drops of potassium dichromate saturated solution, and were used for collecting the milk samples from the milk by the first milking of the cows. The milk sample for each cow was in a volume of 40 mL and placed in a centrifuge tube. After sampling, all the remaining milk was drained from the tubes which were cleaned to avoid contamination between the samples. The samples were stored at 2-7° C. The instrument for measuring the DHI indicators is Milkscan FT+&FC automatic milk compositional analyzer and somatic cell counter. The measurement was carried out in the National Laboratory for Preparation of Standard Materials of DHI.

[2] = test system: cows; assay: Blood indicators of cows after injection of melatonin; conditions: in vivo
[3] = 2-year-old cows, after injection
[4] = 3-year-old cows, after injection
[5] = 4-year-old cows, after injection
[6] = 5-year-old cows, after injection
[7] = 6-year-old cows, after injection
[8] = 7-year-old cows, after injection
[9] = peak-lactation, after injection

COc1ccc2[nH]cc(CCNC(C)=O)c2c1 [melatonin]
dry matter contents [1, 3]: 13.87%±0.27 | fat contents [1, 3]: 4.54%±0.26 | lactose contents [1, 3]: 5.19%±0.03 | milk production [1, 3]: 32.12 ± 1.63 kg/day | protein contents [1, 3]: 3.41%±0.09 | somatic cell scores [1, 3]: 3.87±0.33 | urea nitrogen contents [1, 3]: 13.90 ± 0.80 mg/dL | dry matter contents [1, 4]: 13.57%±0.13 | fat contents [1, 4]: 4.36%±0.11 | lactose contents [1, 4]: 5.03%±0.02 | milk production [1, 4]: 32.11 ± 0.96 kg/day | protein contents [1, 4]: 3.44%±0.04 | somatic cell scores [1, 4]: 4.31±0.18 | urea nitrogen contents [1, 4]: 13.58 ± 0.46 mg/dL | dry matter contents [1, 5]: 14.18%±0.15 | fat contents [1, 5]: 4.69%±0.13 | lactose contents [1, 5]: 4.94%±0.03 | milk production [1, 5]: 30.03 ± 1.22 kg/day | protein contents [1, 5]: 3.66%±0.06 | somatic cell scores [1, 5]: 4.68±0.18 | urea nitrogen contents [1, 5]: 13.32 ± 0.49 mg/dL | dry matter contents [1, 6]: 13.87%±0.18 | fat contents [1, 6]: 4.62%±0.16 | lactose contents [1, 6]: 4.86%±0.05 | milk production [1, 6]: 33.56 ± 1.52 kg/day | protein contents [1, 6]: 3.55%±0.07 | somatic cell scores [1, 6]: 4.04±0.19 | urea nitrogen contents [1, 6]: 14.09 ± 0.59 mg/dL | dry matter contents [1, 7]: 14.13%±0.24 | fat contents [1, 7]: 5.27%±0.21 | lactose contents [1, 7]: 4.91%±0.06 | milk production [1, 7]: 35.19 ± 2.67 kg/day | protein contents [1, 7]: 3.38%±0.07 | somatic cell scores [1, 7]: 5.19±0.27 | urea nitrogen contents [1, 7]: 15.79 ± 0.94 mg/dL | dry matter contents [1, 8]: 13.48%±0.32 | fat contents [1, 8]: 4.66%±0.37 | lactose contents [1, 8]: 4.93%±0.06 | milk production [1, 8]: 30.34 ± 2.08 kg/day | protein contents [1, 8]: 3.32%±0.07 | somatic cell scores [1, 8]: 5.03±0.29 | urea nitrogen contents [1, 8]: 15.11 ± 1.34 mg/dL | dry matter contents ([1]; autumn, after injection): 14.10%±0.14 | fat contents ([1]; autumn, after injection): 4.68%±0.13 | lactose contents ([1]; autumn, after injection): 5.07%±0.04 | milk production ([1]; autumn, after injection): 32.07 ± 1.05 kg/day | protein contents ([1]; autumn, after injection): 3.64%±0.05 | urea nitrogen contents ([1]; autumn, after injection): 11.72 ± 0.36 mg/dL | somatic cell scores ([1]; autumn, after injection (second value of before VS after)): 4.55±0.16 | dry matter contents ([1]; end-lactation, after injection): 13.47%±0.13 | fat contents ([1]; end-lactation, after injection): 4.18%±0.12 | milk production ([1]; end-lactation, after injection): 31.25 ± 1.29 kg/day | protein contents ([1]; end-lactation, after injection): 3.40%±0.04 | somatic cell scores ([1]; end-lactation, after injection): 1.99±0.15 | urea nitrogen contents ([1]; end-lactation, after injection): 12.04 ± 0.38 mg/dL | dry matter contents ([1]; mid-lactation, after injection): 13.56%±0.14 | fat contents ([1]; mid-lactation, after injection): 4.22%±0.11 | lactose contents ([1]; mid-lactation, after injection): 5.19%±0.02 | milk production ([1]; mid-lactation, after injection): 39.08 ± 1.79 kg/day | protein contents ([1]; mid-lactation, after injection): 3.45%±0.05 | somatic cell scores ([1]; mid-lactation, after injection): 2.00±0.17 | urea nitrogen contents ([1]; mid-lactation, after injection): 12.11 ± 0.54 mg/dL | dry matter contents [1, 9]: 13.17%±0.29 | fat contents [1, 9]: 3.87%±0.26 | milk production [1, 9]: 38.80 ± 2.06 kg/day | protein contents [1, 9]: 3.35%±0.06 | somatic cell scores [1, 9]: 2.04±0.24 | urea nitrogen contents [1, 9]: 11.12 ± 0.64 mg/dL | dry matter contents ([1]; spring, after injection): 13.92%±0.15 | fat contents ([1]; spring, after injection): 4.78%±0.14 | lactose contents ([1]; spring, after injection): 4.94%±0.02 | milk production ([1]; spring, after injection): 32.11 ± 1.15 kg/day | protein contents ([1]; spring, after injection): 3.49%±0.04 | urea nitrogen contents ([1]; spring, after injection): 14.35 ± 0.45 mg/dL | somatic cell scores ([1]; spring, after injection (second value of before VS after), 2 mL/day s.c., 4 days, milk 15 days after): 4.89±0.15 | dry matter contents ([1]; summer, after injection): 13.42%±0.13 | fat contents ([1]; summer, after injection): 4.20%±0.12 | lactose contents ([1]; summer, after injection): 5.06%±0.02 | milk production ([1]; summer, after injection): 32.69 ± 1.00 kg/day | protein contents ([1]; summer, after injection): 3.45%±0.04 | urea nitrogen contents ([1]; summer, after injection): 14.19 ± 0.50 mg/dL | somatic cell scores ([1]; summer, after injection (second value of before VS after)): 4.09±0.20 | somatic cell score reduced by ([1]; whole year, n=328, p<0.01): 63.54% | fat content of milk reduced by ([1]; whole year, n=328, p<0.05): 11.31% | lactose content increased to ([1]; whole year, n=328, p<0.05): 4.74% | protein content of milk increased by ([1]; whole year, n=328, p<0.05): 3.79% | urea nitrogen content of milk reduced by ([1]; whole year, n=328, p<0.05): 11.08% | dry matter contents ([1]; winter, after injection): 13.65%±0.12 | fat contents ([1]; winter, after injection): 4.75%±0.11 | lactose contents ([1]; winter, after injection): 4.84%±0.04 | milk production ([1]; winter, after injection): 31.82 ± 1.17 kg/day | protein contents ([1]; winter, after injection): 3.43%±0.05 | urea nitrogen contents ([1]; winter, after injection): 15.94 ± 0.51 mg/dL | somatic cell scores ([1]; winter, after injection (second value of before VS after)): 4.34±0.17 | concentration of alanine aminotransferase [2]: increase | concentration of albumin [2]: increase | concentration of cortisol [2]: reduce | concentration of serum lactate dehydrogenase [2]: increase | number of lymphocytes [2]: reduce | number of neutrophils [2]: reduce | number of white blood cells [2]: reduce
